Where two headings read alike, the source gives them in different places. Residues, ends and D or L forms follow the SMILES beside them.

These results are taken from US20100273722A1, “MODIFIED MINIATURE PROTEINS” (Yale University, priority 2007, published 2010).

For series [1], the target named is c-Src SH3 domain-GST fusion protein (Gallus gallus, UniProt P00523). Nature of the series: Fluorescence polarization direct binding assay, c-Src SH3. Further details: species or system chicken. The conditions noted are these: 50 nM fluorescently labeled ligand, read-out: Kd, c-Src SH3. As for the experimental part:
Polarization was measured by excitation with vertically polarized light at 485 nm and the fluorescence emission detected at 530 nm in both the vertical and horizontal directions. An average of five measurements were recorded for each well. Samples were equilibrated at room temperature for 25 min before analysis, a time sufficient for the binding reactions to reach equilibrium. The polarization data were fit using Kaleidagraph v3.6 software to Eq. 5, which is derived from first principles without assumptions. […] In this equation, Pobs is the observed polarization value at any given concentration of target protein (GST•SH3 domain). Pmin is the polarization of peptide^Flu at 50 nM in the absence of target protein. Pmax is the maximum polarization of peptide^Flu at saturation with target protein. Kd is the equilibrium dissociation constant. […] Free fits are shown. Kd values were estimated as described.
On the technique in general: Fluorescence polarisation rises when a labelled molecule tumbles more slowly, as on binding a larger partner.

Another series deals with T1, Hck kinase (Homo sapiens, UniProt P08631).
T1 construct: His6 (N); made in house; host or cells: HighFive insect cells, co-infected with Hck and Csk baculovirus
The series is described as follows: Hck kinase activation, NADH-coupled assay. The conditions noted are these: for Activity / Fold-Activation: Activator 50 micromolar; for Fold-Activation: rate with ligand / rate without ligand; for EC50: read-out: Kact (concentration of activator at half-maximal activation). In kind it is biochemical. As for the experimental part: Activation of Hck kinase was measured using a validated NADH-coupled assay as described. Briefly, purified Hck kinase (15 micromolar) was first pre-incubated with 500 micromolar ATP and 20 mM MgCl2 for about 30 min on ice to initiate autophosphorylation of Y416. The autophosphorylated product (0.55 micromolar final concentration) was then incubated in Hck Reaction Buffer (20 mM MgCl2, 0.1 mM DTT, 20 μg/mL BSA, 100 mM HEPES (pH 7.5)) for 10 min at room temperature with the indicated concentration of Nef or miniature protein. At this time the remaining assay components (1 mM PEP, 0.2 mM NADH, 6 U pyruvate kinase (Type II from rabbit muscle, Sigma), 6 U L-lactic dehydrogenase (Type II from rabbit muscle, Sigma), 600 micromolar substrate peptide, and 500 micromolar ATP) were added to initiate the reaction (total volume 200 microliters) and the absorbance at 340 nm was monitored every 10 sec for 10 min using a Beckman DU 730 UVN is Spectrophotomer. The activation constant Kact for each ligand was calculated from the initial rate as a function of ligand concentration as previously described, using Eq. 6. Fold activation was calculated by dividing the rate in the presence of ligand by the rate in the absence of ligand.
va=Vact[L]/(Kact±[L]) Equation 6.
In this equation va is velocity measured in the presence of ligand minus the velocity measured in its absence; Vact is the maximal activated velocity minus the velocity measured in the absence of ligand; [L] is the concentration of activator and Kact is concentration of activator at half-maximal activation.

Series [2] can be described thus: Sedimentation equilibrium analytical ultracentrifugation of aPP variants, monomer-n-mer fit (self-association). Format: physicochemical. As for the experimental part:
Analytical ultracentrifugation experiments were performed using peptide solutions prepared in Tris.Cl buffer (25 mM Tris base, 50 mM NaCl, (pH 8.0)) at the appropriate concentrations (5 micromolar to 200 micromolar). Samples were then centrifuged to equilibrium at 25° C. at 42,000, 50,000, and 60,000 rpm. Data were collected with a 0.001 cm step size and successive scans were initiated at 2 h intervals. Samples were judged to have reached equilibrium when the radial concentration gradient remained unchanged over three successive scans using the Match module of Heteroanalysis software v1.1.19. The solvent density (ρ, rho) and partial specific volume ( ν, nu) were calculated using the Sedimentation Interpretation Program “Sednterp” software v1.08.
The data for each peptide (multiple concentrations at three speeds) was first fit globally to an equation describing the sedimentation of an ideal species of molecular weight Mn (Eq. 1) using Heteroanalysis software v1.1.19:
where C represents the concentration of the sedimenting species at distances r and r0 cm from the center of rotation; ν (nu) is the partial specific volume of the sedimenting species in cc/g; ρ (rho) is the density of the supporting buffer in g/cc; ω (omega) is the angular velocity of the rotor (radians/s); Mn is the “molar” molecular weight of sedimenting species (g/mol); R is the universal gas constant (8.315×10^7 ergs K^−1 mol^−1) and T is the temperature in degrees Kelvin.
In order to quantify this self-association, the data for each peptide was next fit globally to a monomer-n-mer equilibrium model using Eq. 2:
where n is the stoichiometry of the self-associated complex. Errors were calculated for n and lnKA using f-statistics to two standard deviations.
Samples were prepared in PBS buffer and centrifuged at speeds of 42,000 (41), 50,000 (42), or 60,000 RPM (43) at 25° C. Experimental data are shown as points; lines indicate the best fit to a monomer-n-mer model described by Eq. 2.

Series [3] can be described thus: Circular dichroism (wavelength- and temperature-dependent) of aPP variants, Example 1. In kind it is physicochemical. The conditions noted are these: 30 micromolar, Tris buffer pH 8.0, 25° C. As for the experimental part:
The CD spectra of each peptide (30 micromolar) were acquired in Tris buffer (25 mM Tris base, 50 mM NaCl, (pH 8.0)) at 25° C. in a 2 mm cell. Samples were scanned between 200 and 260 nm, with signal sampling every 0.5 nm, and three successive scans were averaged. Molar residue ellipticity values were calculated from the equation MRE=(Θsample−Θbuffer)/(L×c×n×1000), where Θ is the observed signal in millidegrees, L is the length of the cuvette in cm, c is the concentration of peptide in dmol cm^−3 and n is the number of amino acids in the molecule.
Temperature-dependent CD spectra of aPP^Y7AP13SV14P (30 micromolar) were acquired in Dulbecco's PBS (1 mM KH2PO4, 155 mM NaCl, 3 mM Na2HPO4, (pH 7.4)) in a 2 mm cell. The signal at 222 nm (MRE222) was monitored between 1° C. and 80° C. using the variable temperature module provided with the instrument. Data were collected with a 0.5° C. data pitch, 5 s delay time, 20° C./hour temperature slope, 4 s response, and 1 nm bandwidth. CD spectra were obtained as the temperature was raised and when the temperature was lowered to establish the reversibility of the folding transition. Additionally, a full wavelength scan was obtained before and after the thermal melt; an overlay of the two spectra is shown in FIG. 3A. […] Mean residue ellipticity values for the temperature dependent CD spectrum were calculated from the equation MRE=Θ222 nm/(L×c×n×1000), where Θ is observed signal at 222 nm (mdeg), L is the length of, the cuvette (cm), c is the concentration of peptide (dmol/cm^3) and n is the number of amino acids in the molecule. The first derivatives of the temperature-dependent CD spectra are shown in FIG. 3B, which is a plot of δMRE222/δT (units of deg cm^2 dmol^−1 K^−1). The Tm value reported in the main text corresponds to the temperature at which ∂MRE222/∂T is a maximum.

T1 sequence (P08631 whole entry): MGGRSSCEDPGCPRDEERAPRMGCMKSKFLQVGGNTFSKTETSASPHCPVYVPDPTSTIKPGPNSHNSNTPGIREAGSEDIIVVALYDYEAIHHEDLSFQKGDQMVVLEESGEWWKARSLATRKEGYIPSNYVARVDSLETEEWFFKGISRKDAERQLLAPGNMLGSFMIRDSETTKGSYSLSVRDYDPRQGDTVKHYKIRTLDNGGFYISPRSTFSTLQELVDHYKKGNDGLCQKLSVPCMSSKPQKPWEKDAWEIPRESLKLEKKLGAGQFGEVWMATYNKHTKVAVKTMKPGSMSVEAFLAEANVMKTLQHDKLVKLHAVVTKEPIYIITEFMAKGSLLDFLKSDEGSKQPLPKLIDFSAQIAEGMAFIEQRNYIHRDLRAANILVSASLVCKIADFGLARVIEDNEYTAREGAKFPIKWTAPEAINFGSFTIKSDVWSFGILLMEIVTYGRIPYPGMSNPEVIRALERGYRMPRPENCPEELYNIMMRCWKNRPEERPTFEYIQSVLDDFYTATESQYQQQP

For `CC[C@H](C)[C@H](NC(=O)[C@H](CC(C)C)NC(=O)[C@H](CC(=O)O)NC(=O)[C@H](CCC(=O)O)NC(=O)[C@@H](NC(=O)[C@@H]1CCCN1C(=O)[C@H](C)NC(=O)[C@H](CC(=O)O)NC(=O)[C@H](CC(=O)O)NC(=O)CNC(=O)[C@H](CCCNC(=N)N)NC(=O)[C@H](CC(N)=O)NC(=O)[C@H](CCCNC(=N)N)NC(=O)[C@@H]1CCCN1C(=O)[C@@H]1CCCN1C(=O)[C@H](CC(C)C)NC(=O)[C@@H]1CCCN1C(=O)[C@@H]1CCCN1C(=O)[C@H](C)N)C(C)C)C(=O)N[C@@H](CCCNC(=N)N)C(=O)N[C@@H](Cc1ccccc1)C(=O)N[C@@H](Cc1ccc(O)cc1)C(=O)N[C@@H](CC(=O)O)C(=O)N[C@@H](CC(N)=O)C(=O)N[C@@H](CC(C)C)C(=O)N[C@@H](CCC(N)=O)C(=O)N[C@@H](CCC(N)=O)C(=O)N[C@@H](Cc1ccc(O)cc1)C(=O)N[C@@H](CC(C)C)C(=O)N[C@@H](CC(N)=O)C(=O)N[C@H](C(=O)N[C@H](C(=O)N[C@H](C(=O)N[C@@H](CCCNC(=N)N)C(=O)N[C@@H](Cc1c[nH]cn1)C(=O)N[C@@H](CCCNC(=N)N)C(=O)N[C@@H](Cc1ccc(O)cc1)C(N)=O)[C@@H](C)O)C(C)C)C(C)C` [PP2] (H-APPLPPRNRGDDAPVEDLIRFYDNLQQYLNVVTRHRY-NH2), in series [1] (PBS pH 7.4), the Kd is 1.3 ± 0.2 µM. Besides, on Hck kinase, the Activity came to 138.8 ± 7.6 nmol/s, the Fold-Activation stood at 13 ± 5 and the EC50 was determined as 48 ± 13 µM.

Consider `CC[C@H](C)[C@H](NC(=O)[C@H](CC(C)C)NC(=O)[C@H](CC(=O)O)NC(=O)[C@H](CCC(=O)O)NC(=O)[C@@H](NC(=O)[C@@H]1CCCN1C(=O)[C@H](C)NC(=O)[C@H](CC(=O)O)NC(=O)[C@H](CC(=O)O)NC(=O)CNC(=O)[C@@H]1CCCN1C(=O)[C@H](CC(N)=O)NC(=O)[C@H](CCCNC(=N)N)NC(=O)[C@@H]1CCCN1C(=O)[C@@H]1CCCN1C(=O)[C@H](CC(C)C)NC(=O)[C@@H]1CCCN1C(=O)[C@@H]1CCCN1C(=O)[C@H](C)N)C(C)C)C(=O)N[C@@H](CCCNC(=N)N)C(=O)N[C@@H](Cc1ccccc1)C(=O)N[C@@H](Cc1ccc(O)cc1)C(=O)N[C@@H](CC(=O)O)C(=O)N[C@@H](CC(N)=O)C(=O)N[C@@H](CC(C)C)C(=O)N[C@@H](CCC(N)=O)C(=O)N[C@@H](CCC(N)=O)C(=O)N[C@@H](Cc1ccc(O)cc1)C(=O)N[C@@H](CC(C)C)C(=O)N[C@@H](CC(N)=O)C(=O)N[C@H](C(=O)N[C@H](C(=O)N[C@H](C(=O)N[C@@H](CCCNC(=N)N)C(=O)N[C@@H](Cc1c[nH]cn1)C(=O)N[C@@H](CCCNC(=N)N)C(=O)N[C@@H](Cc1ccc(O)cc1)C(N)=O)[C@@H](C)O)C(C)C)C(C)C` [PP1] (H-APPLPPRNPGDDAPVEDLIRFYDNLQQYLNVVTRHRY-NH2), for which the Kd in series [1] (PBS pH 7.4) was found to be 3.68 ± 0.06 µM. In addition, on Hck kinase, the Activity was determined as 83.6 ± 6.0 nmol/s and the Fold-Activation stood at 8 ± 3.

`CC[C@H](C)[C@H](NC(=O)[C@H](CC(C)C)NC(=O)[C@H](CC(=O)O)NC(=O)[C@H](CCC(=O)O)NC(=O)[C@@H](NC(=O)[C@@H]1CCCN1C(=O)[C@H](C)NC(=O)[C@H](CC(=O)O)NC(=O)[C@H](CCCNC(=N)N)NC(=O)[C@@H]1CCCN1C(=O)[C@H](CCCNC(=N)N)NC(=O)[C@H](CC(N)=O)NC(=O)[C@H](CCCNC(=N)N)NC(=O)[C@@H]1CCCN1C(=O)[C@@H]1CCCN1C(=O)[C@H](CC(C)C)NC(=O)[C@@H]1CCCN1C(=O)[C@@H]1CCCN1C(=O)[C@H](C)N)C(C)C)C(=O)N[C@@H](CCCNC(=N)N)C(=O)N[C@@H](Cc1ccccc1)C(=O)N[C@@H](Cc1ccc(O)cc1)C(=O)N[C@@H](CC(=O)O)C(=O)N[C@@H](CC(N)=O)C(=O)N[C@@H](CC(C)C)C(=O)N[C@@H](CCC(N)=O)C(=O)N[C@@H](CCC(N)=O)C(=O)N[C@@H](Cc1ccc(O)cc1)C(=O)N[C@@H](CC(C)C)C(=O)N[C@@H](CC(N)=O)C(=O)N[C@H](C(=O)N[C@H](C(=O)N[C@H](C(=O)N[C@@H](CCCNC(=N)N)C(=O)N[C@@H](Cc1c[nH]cn1)C(=O)N[C@@H](CCCNC(=N)N)C(=O)N[C@@H](Cc1ccc(O)cc1)C(N)=O)[C@@H](C)O)C(C)C)C(C)C` [PP3] (H-APPLPPRNRPRDAPVEDLIRFYDNLQQYLNVVTRHRY-NH2): the dissociation constant Kd in series [1] was 0.35 ± 0.04 µM. On Hck kinase, the Activity was 83.9 ± 5.4 nmol/s, the Fold-Activation turned out to be 7 ± 3 and the EC50 was 48 ± 22 µM.

Consider “GPSQPTYPGDDAPVEDLIRFADNLQQYLNVVTRHRY [aPP^Y21A]”, for which the “% monomer at 30 μM” value in series [2] (30 μM peptide, 25° C.) was found to be 14%. Besides, the “lnKA when n = 2” value in series [2] (monomer-dimer, 25° C.) is listed as “when n = 2 13.57”. In addition, the “n (stoichiometry of the self-associated complex)” value in series [2] (monomer-n-mer fit, 25° C.) was found to be 1.86. In addition, the “Kd (self-association, dimer)” value in series [2] (n = 2, 25° C., calculated from ln KA) is 1.3 µM. The CD ellipticity at 222 nm in series [3] is -14700 deg cm^2 dmol^−1.

By Kd is commonly meant the constant that tells how readily two partners part at equilibrium.
